{"source": "paper PMC11264596", "about": "“Auxin-mediated regulation of susceptibility to toxic metabolites, c-di-GMP levels, and phage infection in the rhizobacterium Serratia plymuthica” (mSystems, 2024)"}
{"molecular_target": "T1, TrpRA153 (AWY96_RS12805) (Serratia plymuthica, UniProt A0A2X4U763)", "T1 construct": "gene trpR", "assay": "isothermal titration calorimetry", "format": "binding", "units": {"Kd": "µM"}}
{"smiles": "O=C(O)Cc1c[nH]c2ccccc12", "note": "[IAA, indole-3-acetic acid]", "Kd": "326 ± 30"}
{"smiles": "O=C(O)C(=O)Cc1c[nH]c2ccccc12", "note": "[IPA, indole-3-pyruvic acid]", "Kd": "101 ± 7"}
{"smiles": "N[C@@H](Cc1c[nH]c2ccccc12)C(=O)O", "note": "[L-Trp]", "Kd": "91 ± 3"}
